Assay results: patent US6337336B1, “Azaindole derivatives for the treatment of depression” (American Home Products Corporation, priority 1999, dated 2002)
Structures can show the parent of a compound that is named as a salt.

Legend:
serotonin transporter = target: T1, serotonin transporter (Rattus norvegicus, UniProt P31652); assay: serotonin transporter affinity, 3H-paroxetine binding in rat frontal cortical membranes; details: 3H-paroxetine 0.1 nM, read-out: ST (Ki)
T1 construct: frontal cortical membranes prepared from male Sprague-Dawley rats; from tissue; host or cells: rat frontal cortex membranes (male Sprague-Dawley)
Method: A protocol similar to that used by Cheetham et al., Neuropharmacol., 32:737 (1993) was used to determine the affinity of compounds for the serotonin transporter. Briefly, frontal cortical membranes prepared from male Sprague-Dawley rats were incubated with ^3H-paroxetine (0.1 nM) for 60 min at 25° C. All tubes also contained either vehicle, test compound (one to eight concentrations), or a saturating concentration of fluoxetine (10 μM) to define […]. All reactions were terminated by the addition of ice cold Tris buffer followed by rapid filtration using a Tom Tech filtration device to separate bound from free ^3H-paroxetine. Bound radioactivity was quantitated using a Wallac 1205 Beta Plate® counter. Nonlinear regression analysis was used to determine IC50 values which were converted to Ki values using the method set forth in Cheng and Prusoff, Biochem. Pharmacol., 22:3099 (1973) (Ki=IC50/((Radioligand conc.)/(1+KD)).

5-HT1A cloned receptor = target: T2, 5-HT1A cloned receptor (Homo sapiens, UniProt P08908); assay: [35S]-GTPγS binding assay; assay type: biochemical; details: relative to maximum agonist response defined by excess 8-OH-DPAT
T2 construct: expressed in transfected cells
T2 sequence (P08908 1-422): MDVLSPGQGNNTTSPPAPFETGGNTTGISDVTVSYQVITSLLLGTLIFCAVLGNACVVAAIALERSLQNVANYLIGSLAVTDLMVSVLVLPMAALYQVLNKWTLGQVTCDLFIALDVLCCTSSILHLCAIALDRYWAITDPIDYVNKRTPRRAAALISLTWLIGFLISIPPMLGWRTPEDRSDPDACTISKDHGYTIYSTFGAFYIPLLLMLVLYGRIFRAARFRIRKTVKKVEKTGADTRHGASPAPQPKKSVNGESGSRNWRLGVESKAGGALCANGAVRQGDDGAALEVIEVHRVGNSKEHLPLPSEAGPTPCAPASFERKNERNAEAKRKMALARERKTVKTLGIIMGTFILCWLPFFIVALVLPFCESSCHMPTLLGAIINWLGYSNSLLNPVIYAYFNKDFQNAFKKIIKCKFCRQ
Method: The [^35S]-GTPγS binding assay was similar to that used by Lazareno and Birdsall, Br. J. Pharmacol. 109:1120 (1993). Briefly, 5-HT1A cloned receptor membrane fragments (as used for 5-HT1A receptor binding assays) were stored at −70° C. When needed, membranes were rapidly thawed, centrifuged at 40,000×g for 10 minutes and resuspended at 4° C. for 10 minutes in assay buffer (25 mM HEPES, 3 mM MgCl2, 100 mM NaCl, 1 mM EDTA, 10 uM GDP, […], pH 8.0). These membranes were then incubated for 30 min at 30° C. with [^35S]GTPgS (1 nM) in the presence of vehicle, test compound (one to eight concentrations), or excess 8-OH-DPAT to define maximum agonist response. All reactions were terminated by the addition of ice cold Tris buffer followed by rapid filtration using a Tom Tech® filtration device to separate bound from free [^35S]GTPgS. Agonists produced an increase in the amount of [^35S]GTPgS bound whereas antagonists produced no increase in binding. Bound radioactivity was counted and analyzed as above.

human 5-HT1A receptor [1] = target: T3, human 5-HT1A receptor (Homo sapiens, UniProt P08908); assay: human 5-HT1A receptor binding with [3H]8-OH-DPAT in CHO cell membranes
T3 sequence (P08908 1-422): T2 sequence (P08908 1-422)
Method: A stable Chinese hamster ovary cell line expressing the human 5-HT1A receptor subtype (5-HT1A.CHO cells) was employed throughout this study. Cells were maintained in DMEM supplemented with 10% fetal calf serum, non-essential amino acids and penicillin/ streptomycin.
Cells were grown to 95-100% confluency as a monolayer before membranes were harvested for binding studies. Cells were gently scraped from the culture plates, transferred to centrifuge tubes, and washed twice by centrifugation (2000 rpm for 10 min., 4° C.) in buffer (50 mM Tris; pH 7.5). The resulting pellets were aliquoted and maintained at −80° C. On the day of assay, the cells were thawed on ice, and resuspended in buffer. Studies were conducted using [^3H]8-OH-DPAT as the radioligand. The binding assay was performed in 96 well microtiter plates in a final total volume of 250 μL of buffer. Comparison experiments were performed by using 7 concentrations of unlabelled drug and a final ligand concentration of 1.5 nM. Non-specific binding was determined in the presence of 10 μM 5HT. Saturation analysis was conducted by using [^3H]8-OH-DPAT at concentrations ranging from 0.3-30 nM. Following a 30 minute incubation at room temperature, the reaction was terminated by the addition of ice cold buffer and rapid filtration using a M-96 Brandel Cell Harvester (Gaithersburg, MD) through a GF/B filter presoaked for 30 minutes in 0.5% polyethyleneimine.

human 5-HT1A receptor [2] = target: T3, human 5-HT1A receptor; assay: forskolin-stimulated cAMP formation in 5-HT1A.CHO cells (cAMP SPA assay); assay type: cell-based; design: expressed in transfected cells; details: forskolin 1 uM
Method: The following assays were performed by incubating the cells with DMEM containing 25 mM HEPES, 5 mM theophylline and 10 μM pargyline for a period of 20 minutes at 37° C. Functional activity was assessed by treating the cells with forskolin (1 uM final concentration) followed immediately by test compound (6 concentrations) for an additional 10 min at 37° C. In separate experiments, 6 concentrations of antagonist were preincubated for 20 min prior to the addition of 10 nM 8-OH-DPAT and forskolin. The reaction was terminated by removal of the media and addition of 0.5 ml ice cold assay buffer. Plates were stored at −20° C. prior to assessment of cAMP formation by a cAMP SPA assay (Amersham).

T1 sequence (P31652 whole entry): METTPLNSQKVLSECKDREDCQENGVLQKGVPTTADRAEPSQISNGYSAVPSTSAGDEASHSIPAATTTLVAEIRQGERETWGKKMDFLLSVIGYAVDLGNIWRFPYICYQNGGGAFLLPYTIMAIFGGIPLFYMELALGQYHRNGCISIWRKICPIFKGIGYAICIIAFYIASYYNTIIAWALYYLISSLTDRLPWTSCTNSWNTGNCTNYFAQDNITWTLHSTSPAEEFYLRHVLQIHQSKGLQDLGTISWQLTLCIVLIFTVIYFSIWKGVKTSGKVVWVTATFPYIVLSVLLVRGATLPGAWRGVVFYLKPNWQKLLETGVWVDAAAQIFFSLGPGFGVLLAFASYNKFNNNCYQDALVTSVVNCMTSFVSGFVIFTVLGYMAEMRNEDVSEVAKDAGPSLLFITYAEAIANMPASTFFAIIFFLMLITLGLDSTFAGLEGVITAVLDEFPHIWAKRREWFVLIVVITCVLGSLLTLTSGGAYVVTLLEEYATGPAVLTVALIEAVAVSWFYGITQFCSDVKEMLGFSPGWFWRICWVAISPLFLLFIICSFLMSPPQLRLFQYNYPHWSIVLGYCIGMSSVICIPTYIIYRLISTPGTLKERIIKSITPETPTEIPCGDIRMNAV

Structure (SMILES)	melting point [°C]	Ki (serotonin transporter) [nM]	Emax (5-HT1A cloned receptor) [%]	Ki (human 5-HT1A receptor [1]) [nM]	Emax (human 5-HT1A receptor [2]) [%]
C1=C(c2c[nH]c3ncccc23)CCN(CCOc2cccc3c2OCCO3)C1 (as salt: oxalate) [Example 1, 3-{1-[2-(2,3-Dihydro-benzo[1,4]dioxin-5-yloxy)-ethyl]-1,2,3,6-tetrahydro-pyridin-4-yl}-1H-pyrrolo[2,3-b]pyridine]	164 to 167	–	–	–	–
C1=C(c2c[nH]c3ncccc23)CCN(CCOc2cccc3[nH]ccc23)C1 (as salt: oxalate) [Example 2, 3-{1-[2-(1H-Indol-4-yloxy)-ethyl]-1,2,3,6-tetrahydro-pyridin-4-yl}-1H-pyrrolo[2,3-b]pyridine]	106 to 109	–	–	–	–
C1=C(c2c[nH]c3ncccc23)CCN(CCOc2cccc3ncccc23)C1 (as salt: oxalate) [Example 3, 5-{2-[4-(1H-Pyrrolo[2,3-b]pyridin-3-yl)-3,6-dihydro-2H-pyridin-1-yl]-ethoxy}-quinoline]	202 to 205	–	–	–	–
C1=C(c2c[nH]c3ncccc23)CCN(CCOc2cccc3c2OCCO3)C1 [Example 1, 3-{1-[2-(2,3-Dihydro-benzo[1,4]dioxin-5-yloxy)-ethyl]-1,2,3,6-tetrahydro-pyridin-4-yl}-1H-pyrrolo[2,3-b]pyridine]	–	18	30	43.9	–
C1=C(c2c[nH]c3ncccc23)CCN(CCOc2cccc3[nH]ccc23)C1 [Example 2, 3-{1-[2-(1H-Indol-4-yloxy)-ethyl]-1,2,3,6-tetrahydro-pyridin-4-yl}-1H-pyrrolo[2,3-b]pyridine]	–	1.46	9	10.9	0
C1=C(c2c[nH]c3ncccc23)CCN(CCOc2cccc3ncccc23)C1 [Example 3, 5-{2-[4-(1H-Pyrrolo[2,3-b]pyridin-3-yl)-3,6-dihydro-2H-pyridin-1-yl]-ethoxy}-quinoline]	–	6.89	0	71.6	0
